The subject of this test is Aphelenchoides besseyi. Description: Soybean pot trial in the greenhouse, seed treatment, nematode control. The test is classed as in vivo. The settings on record: 28-day after inoculation assessment. As to the method:
A soybean pot trial was carried out in the greenhouse of Holambra Field Station, state of Sao Paulo, Brazil, to evaluate the efficacy of nematicidal treatments against Aphelenchoides besseyi.
The seeds of the susceptible soybean variety Nidera 6828 IPRO were treated (seed treatment) at the field station with the use of a slurry (spray solution) of 0.6 liter per 100 kg of seeds of soybean. The treated seeds (treatments 3-10) were then compared with the untreated checks.
Two seeds were sowed in 1-liter pots with the Holambra Mix (25% of Holambra station soil and 75% pasteurized sand). […] The inoculation of each plant with the nematode was performed at 8 days after emergence (at the crop stage V1) by using a pipet with 1000 juveniles of Aphelenchoides per plant, directed to the base of the plant. Each plot of the trial was 1 pot containing 1 infested plant of soybean. A total of 6 replicates per treatment was used. The plants were grown in separated plastic chambers (to avoid contamination of plots) inside a greenhouse that averaged 30° C. in the day and 20° C. in the night. Plants were watered many times per day (for keeping a favourable environment for the growth of nematode population and migration to the aerial part of plants) by an automatic sprinkler system. […]

Results on 1 compound are retold here after patent US12628825B2, “Methods of controlling or preventing infestation of plants by plant-parasitic nematodes of the genus Aphelenchoides spp., especially Aphelenchoides besseyi” (SYNGENTA CROP PROTECTION AG, priority 2020, dated 2026).

In the case of `O=C(N[C@@H]1CC[C@@H]1c1ccc(Cl)cc1Cl)c1cccnc1C(F)(F)F` (racemic) [cyclobutrifluram], for the setting “even at the lowest rate tested of 5 g AI per 100 kg of seeds”, the “comparison to Avicta 500FS and Ilevo 600FS” value was “statistically superior”. Moreover, the “activity against Aphelenchoides besseyi which attacked soybean” value (seed treatment) was “excellent activity”.
